In the supplement of paper PMC11061612:

How the values were obtained:
[1] = test system: RERF-LC-Sq1 (Squamous Cell Lung Carcinoma); experiment: combination Emax (second highest fraction inhibited in the dose matrix, 72 h); higher = more inhibition; extreme values may be limits of the assay
In short: (§1)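 Bliss excess equals the observed combination effect minus the expected value EA + EB − EA·EB, where EA and EB are the effects of each agent alone. Combination Emax is the second-highest inhibition within the matrix. Inhibition was scaled from CellTiter-Glo 2.0 luminescence, with 0 set by vehicle wells and 1 by blank wells, after 72 hours of two-drug dosing of cells plated in 1536-well plates.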

[2] = test system: CAL-120 (Breast Carcinoma); experiment: as above
In short: as §1

[3] = test system: LB996-RCC (Kidney Carcinoma); experiment: as above
In short: as §1

[4] = test system: MKN45 (Gastric Carcinoma); experiment: Bliss excess, mean over the matrix (fraction); higher = more synergy
In short: as §1

[5] = test system: GP5d (Colorectal Carcinoma); experiment: as above
In short: as §1

[6] = test system: HEC-1 (Endometrial Carcinoma); experiment: as above
In short: as §1

A2058 (Melanoma) = experiment: as above
In short: as §1

[7] = test system: RERF-LC-Sq1 (Squamous Cell Lung Carcinoma); experiment: as above
In short: as §1

SF539 (Glioblastoma) = experiment: as above
In short: as §1

[8] = test system: NCI-H23 (Lung Adenocarcinoma); experiment: as above
In short: as §1

[9] = test system: HSC-39 (Gastric Carcinoma); experiment: as above
In short: as §1

[10] = test system: CAL-120 (Breast Carcinoma); experiment: as above
In short: as §1

WM793B (Melanoma) = experiment: as above
In short: as §1

[11] = test system: RKN (Other Solid Carcinomas); experiment: as above
In short: as §1

IST-MES1 (Mesothelioma) = experiment: as above
In short: as §1

[12] = test system: RCM-1 (Colorectal Carcinoma); experiment: as above
In short: as §1

[13] = test system: KE-37 (T-Lymphoblastic Leukemia); experiment: as above
In short: as §1

[14] = test system: HCT-15 (Colorectal Carcinoma); experiment: as above
In short: as §1

[15] = test system: CAL-62 (Thyroid Gland Carcinoma); experiment: as above
In short: as §1

[16] = test system: LXF-289 (Lung Adenocarcinoma); experiment: as above
In short: as §1

SMILES	combination Emax [1]	combination Emax [2]	combination Emax [3]	Bliss excess [4]	Bliss excess [5]	Bliss excess [6]	Bliss excess (A2058 (Melanoma))	Bliss excess [7]	Bliss excess (SF539 (Glioblastoma))	Bliss excess [8]	Bliss excess [9]	Bliss excess [10]	Bliss excess (WM793B (Melanoma))	Bliss excess [11]	Bliss excess (IST-MES1 (Mesothelioma))	Bliss excess [12]	Bliss excess [13]	Bliss excess [14]	Bliss excess [15]	Bliss excess [16]
CC(=O)Nc1cccc(-n2c(=O)n(C3CC3)c(=O)c3c(Nc4ccc(I)cc4F)n(C)c(=O)c(C)c32)c1 [Trametinib] + Cc1nc(-c2cn3c(n2)-c2ccc(-c4cnn(C(C)(C)C(N)=O)c4)cc2OCC3)n(C(C)C)n1 [Taselisib] (first compound max 1 µM, 7x7, partner max 10 µM)	0.981	0.564	0.955	-0.0862	-0.0186	0.11	0.104	0.0906	0.177	0.189	0.184	0.0676	0.0203	0.124	0.0469	0.0117	0.0968	0.139	0.15	0.164
CC1(C)CCC(CN2CCN(c3ccc(C(=O)NS(=O)(=O)c4ccc(NCC5CCOCC5)c([N+](=O)[O-])c4)c(Oc4cnc5[nH]ccc5c4)c3)CC2)=C(c2ccc(Cl)cc2)C1 [Venetoclax] + C1CN(CCC1(C(=O)N[C@@H](CCO)C2=CC=C(C=C2)Cl)N)C3=NC=NC4=C3C=CN4 [Capivasertib] (first compound max 1 µM, 7x7, partner max 3 µM)	0.663	0.227	0.471	-0.0205	-0.0548	-0.0465	-0.0333	-0.0391	-0.0189	-0.0081	-0.0104	-0.0198	-0.029	-0.0469	-0.033	-0.0293	0.012	-0.0383	-0.0409	-0.0275
CC1(C)CCC(CN2CCN(c3ccc(C(=O)NS(=O)(=O)c4ccc(NCC5CCOCC5)c([N+](=O)[O-])c4)c(Oc4cnc5[nH]ccc5c4)c3)CC2)=C(c2ccc(Cl)cc2)C1 [Venetoclax] + C=CCn1c(=O)c2cnc(Nc3ccc(N4CCN(C)CC4)cc3)nc2n1-c1cccc(C(C)(C)O)n1 [AZD1775] (first compound max 1 µM, partner max 1 µM)	0.586	0.31	0.758	-0.0402	-0.0561	-0.0569	-0.0886	-0.0437	-0.0234	-0.0533	0.0776	-0.0309	0.0101	-0.0729	-0.0281	0.0294	0.0083	-0.0265	0.0452	-0.0515
CC1(C)CCC(CN2CCN(c3ccc(C(=O)NS(=O)(=O)c4ccc(NCC5CCOCC5)c([N+](=O)[O-])c4)c(Oc4cnc5[nH]ccc5c4)c3)CC2)=C(c2ccc(Cl)cc2)C1 [Venetoclax] + CCN(CCO)CCCOc1ccc2c(Nc3cc(CC(=O)Nc4cccc(F)c4)[nH]n3)ncnc2c1 [AZD2811] (first compound max 1 µM, 7x7, partner max 1 µM)	0.361	0.153	0.339	-0.066	-0.0235	-0.0262	0.0655	0.0197	0.0468	-0.0051	0.0077	-0.014	0.0206	-0.011	-0.0327	-0.0144	-0.0266	0.0051	0.0363	-0.0678
CC1(C)CCC(CN2CCN(c3ccc(C(=O)NS(=O)(=O)c4ccc(NCC5CCOCC5)c([N+](=O)[O-])c4)c(Oc4cnc5[nH]ccc5c4)c3)CC2)=C(c2ccc(Cl)cc2)C1 [Venetoclax] + CN(C)CCCOc1ccc(-c2ccc3ncc4c(c3c2)n(C2CCOCC2)c(=O)n4C)cn1 [AZD0156] (first compound max 1 µM, 7x7, partner max 1 µM)	0.229	0.167	0.222	-0.095	-0.0274	0.0064	0.0014	-0.0401	0.0126	-0.0114	0.015	-0.0307	-0.0499	-0.0862	-0.0382	-0.0086	-0.0036	-0.0192	0.0063	-0.0157
CC1(C)CCC(CN2CCN(c3ccc(C(=O)NS(=O)(=O)c4ccc(NCC5CCOCC5)c([N+](=O)[O-])c4)c(Oc4cnc5[nH]ccc5c4)c3)CC2)=C(c2ccc(Cl)cc2)C1 [Venetoclax] + COc1cc(Nc2ncc3c(n2)-c2ccc(Cl)cc2C(c2c(F)cccc2OC)=NC3)ccc1C(=O)O [Alisertib] (first compound max 1 µM, 7x7, partner max 10 µM)	0.42	0.384	0.658	-0.0645	0.0453	-0.0385	-0.0871	-0.0289	0.0396	0.14	-0.103	-0.0182	-0.0223	-0.0516	-0.0479	-0.0717	-0.0545	-0.0034	-0.0092	-0.0953
CC1(C)CCC(CN2CCN(c3ccc(C(=O)NS(=O)(=O)c4ccc(NCC5CCOCC5)c([N+](=O)[O-])c4)c(Oc4cnc5[nH]ccc5c4)c3)CC2)=C(c2ccc(Cl)cc2)C1 [Venetoclax] + C[C@@H]1COCCN1C2=NC(=NC(=C2)C3(CC3)[S@](=N)(=O)C)C4=C5C=CNC5=NC=C4 [AZD6738] (first compound max 1 µM, 7x7, partner max 10 µM)	0.675	0.384	0.654	-0.0526	-0.0657	-0.0267	-0.0008	-0.0476	-0.0339	0.0157	0.0079	-0.0118	-0.0044	-0.058	-0.0101	-0.0542	0.0293	-0.0084	0.0023	-0.0138
CC1(C)CCC(CN2CCN(c3ccc(C(=O)NS(=O)(=O)c4ccc(NCC5CCOCC5)c([N+](=O)[O-])c4)c(Oc4cnc5[nH]ccc5c4)c3)CC2)=C(c2ccc(Cl)cc2)C1 [Venetoclax] + C[C@@H](Nc1cc(F)cc(F)c1)c1cc(C(=O)N(C)C)cc2c(=O)cc(N3CCOCC3)oc12 [AZD8186] (first compound max 1 µM, 7x7, partner max 3 µM)	0.121	0.12	0.306	-0.057	-0.0188	-0.0336	-0.0031	-0.0242	-0.0062	0.007	-0.0503	-0.0194	-0.016	-0.0289	-0.0423	-0.0495	0.0385	-0.0184	-0.0173	-0.0008
CC1(C)CCC(CN2CCN(c3ccc(C(=O)NS(=O)(=O)c4ccc(NCC5CCOCC5)c([N+](=O)[O-])c4)c(Oc4cnc5[nH]ccc5c4)c3)CC2)=C(c2ccc(Cl)cc2)C1 [Venetoclax] + Cc1cc2ncnn2cc1Nc1ncc2c(n1)n(C1CCOCC1)c(=O)n2C [AZD7648] (first compound max 1 µM, 7x7, partner max 10 µM)	0.229	0.125	0.373	-0.0576	-0.0119	-0.0286	0.007	-0.0268	0.0069	-0.0172	-0.0289	-0.0338	0.0156	-0.062	-0.0284	-0.0533	0.0325	-0.0043	-0.025	-0.0935
CC1(C)CCC(CN2CCN(c3ccc(C(=O)NS(=O)(=O)c4ccc(NCC5CCOCC5)c([N+](=O)[O-])c4)c(Oc4cnc5[nH]ccc5c4)c3)CC2)=C(c2ccc(Cl)cc2)C1 [Venetoclax] + Cn1cnc2c(F)c(Nc3ccc(Br)cc3Cl)c(C(=O)NOCCO)cc21 [Selumetinib] (first compound max 1 µM, 7x7, partner max 3 µM)	0.312	0.106	0.156	-0.0574	0.01	-0.0315	-0.005	-0.0467	0.0003	-0.0208	-0.048	-0.0174	-0.0191	-0.0034	-0.0381	-0.0369	-0.0013	-0.0231	-0.0114	-0.0312
